Experimental data: PubChem BioAssay (NCI)
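Following 48 hours of exposure in 96-well plates, responses at five concentrations were used to interpolate endpoints linearly. Abbreviation: GI50, concentration required for 50% inhibition of growth. TGI: total growth inhibition.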

What was measured:
Assay in all cases: NCI-60 cell line screen, 48 h; in the data active = GI50 below about 0.43 µM; inactive = the rest
HCT-116 colon = system: HCT-116 colon
MDA-MB-231 breast = system: MDA-MB-231 breast
HCC-2998 colon = system: HCC-2998 colon
SW-620 colon = system: SW-620 colon
OVCAR-8 ovarian = system: OVCAR-8 ovarian
MALME-3M melanoma = system: MALME-3M melanoma
SK-OV-3 ovarian = system: SK-OV-3 ovarian
HT29 colon = system: HT29 colon
OVCAR-4 ovarian = system: OVCAR-4 ovarian
DU-145 prostate = system: DU-145 prostate
HOP-62 NSCLC = system: HOP-62 NSCLC
NCI/ADR-RES ovarian = system: NCI/ADR-RES ovarian
786-0 renal = system: 786-0 renal
NCI-H226 lung = system: NCI-H226 lung
U251 CNS = system: U251 CNS
CCRF-CEM leukemia = system: CCRF-CEM leukemia
SK-MEL-2 melanoma = system: SK-MEL-2 melanoma
KM12 colon = system: KM12 colon
LOX IMVI melanoma = system: LOX IMVI melanoma
K-562 leukemia = system: K-562 leukemia
COLO 205 colon = system: COLO 205 colon
SF-268 CNS = system: SF-268 CNS
SK-MEL-5 melanoma = system: SK-MEL-5 melanoma
TK-10 renal = system: TK-10 renal
MOLT-4 leukemia = system: MOLT-4 leukemia
CAKI-1 renal = system: CAKI-1 renal
OVCAR-3 ovarian = system: OVCAR-3 ovarian
NCI-H23 lung = system: NCI-H23 lung
RPMI-8226 leukemia = system: RPMI-8226 leukemia
HS 578T breast = system: HS 578T breast
SK-MEL-28 melanoma = system: SK-MEL-28 melanoma
MCF7 breast = system: MCF7 breast
BT-549 breast = system: BT-549 breast
SNB-75 CNS = system: SNB-75 CNS
T-47D breast = system: T-47D breast
A549 NSCLC = system: A549 NSCLC
SF-539 CNS = system: SF-539 CNS
UO-31 renal = system: UO-31 renal
HCT-15 colon = system: HCT-15 colon
A498 renal = system: A498 renal
RXF 393 renal = system: RXF 393 renal
NCI-H460 lung = system: NCI-H460 lung
UACC-257 melanoma = system: UACC-257 melanoma
SN12C renal = system: SN12C renal
PC-3 prostate = system: PC-3 prostate
NCI-H522 lung = system: NCI-H522 lung
MDA-MB-435 = system: MDA-MB-435
UACC-62 melanoma = system: UACC-62 melanoma
HL-60(TB) leukemia = system: HL-60(TB) leukemia
HOP-92 NSCLC = system: HOP-92 NSCLC
OVCAR-5 ovarian = system: OVCAR-5 ovarian
M14 melanoma = system: M14 melanoma
SNB-19 CNS = system: SNB-19 CNS
ACHN renal = system: ACHN renal
SR leukemia = system: SR leukemia
IGROV1 ovarian = system: IGROV1 ovarian

COc1cc(CSc2nc3ccc(Cl)cc3c(=O)n2Cc2ccccc2)cc(OC)c1OC
59.4 µM: TGI (SK-MEL-2 melanoma)
51.8 µM: TGI (TK-10 renal)
inactive: GI50 (HCT-116 colon) 3.72 µM | GI50 (MDA-MB-231 breast) 5.34 µM | GI50 (HCC-2998 colon) 6.18 µM | GI50 (SW-620 colon) 2.65 µM | GI50 (OVCAR-8 ovarian) 5.18 µM | GI50 (MALME-3M melanoma) 5.81 µM | GI50 (SK-OV-3 ovarian) 3.23 µM | GI50 (HT29 colon) 3.32 µM | GI50 (OVCAR-4 ovarian) 4.99 µM | GI50 (DU-145 prostate) 4.46 µM | GI50 (HOP-62 NSCLC) 2.88 µM | GI50 (NCI/ADR-RES ovarian) 2.77 µM | GI50 (786-0 renal) 7.62 µM | GI50 (NCI-H226 lung) 12.3 µM | GI50 (U251 CNS) 4.36 µM | GI50 (CCRF-CEM leukemia) 3.6 µM | GI50 (SK-MEL-2 melanoma) 6.57 µM | GI50 (KM12 colon) 2.9 µM | GI50 (LOX IMVI melanoma) 5.97 µM | GI50 (K-562 leukemia) 1.19 µM | GI50 (COLO 205 colon) 1.56 µM | GI50 (SF-268 CNS) 7.33 µM | GI50 (SK-MEL-5 melanoma) 2.41 µM | GI50 (TK-10 renal) 10.3 µM | GI50 (MOLT-4 leukemia) 4.41 µM | GI50 (CAKI-1 renal) 3.19 µM | GI50 (OVCAR-3 ovarian) 3.2 µM | GI50 (NCI-H23 lung) 8.48 µM | GI50 (RPMI-8226 leukemia) 4.27 µM | GI50 (HS 578T breast) 1.63 µM | GI50 (SK-MEL-28 melanoma) 3.05 µM | GI50 (MCF7 breast) 1.34 µM | GI50 (BT-549 breast) 6.19 µM | GI50 (SNB-75 CNS) 1.15 µM | GI50 (T-47D breast) 3.92 µM | GI50 (A549 NSCLC) 4.03 µM | GI50 (SF-539 CNS) 2.57 µM | GI50 (UO-31 renal) 4.4 µM | GI50 (HCT-15 colon) 1.46 µM | GI50 (A498 renal) 1.89 µM | GI50 (RXF 393 renal) 3.15 µM | GI50 (NCI-H460 lung) 3.33 µM | GI50 (UACC-257 melanoma) 8.47 µM | GI50 (SN12C renal) 5.2 µM | GI50 (PC-3 prostate) 3.48 µM | GI50 (NCI-H522 lung) 0.652 µM | GI50 (UACC-62 melanoma) 2.34 µM | GI50 (HL-60(TB) leukemia) 4.11 µM | GI50 (HOP-92 NSCLC) 1.93 µM | GI50 (OVCAR-5 ovarian) 7 µM | GI50 (M14 melanoma) 4.26 µM | GI50 (SNB-19 CNS) 5.46 µM | GI50 (ACHN renal) 4.23 µM | GI50 (SR leukemia) 0.59 µM | GI50 (IGROV1 ovarian) 10.2 µM
9.16 µM: TGI (HOP-92 NSCLC)
27.6 µM: TGI (SR leukemia)
45.5 µM: TGI (MCF7 breast)
17.7 µM: TGI (SK-OV-3 ovarian)
17.1 µM: TGI (SK-MEL-5 melanoma)
9.34 µM: TGI (SF-539 CNS)
4.54 µM: TGI (NCI-H522 lung)
8.2 µM: TGI (A498 renal)
34.2 µM: TGI (ACHN renal)
11.6 µM: TGI (OVCAR-3 ovarian) | TGI (MDA-MB-435)
> 100 µM: TGI (HCT-116 colon) | TGI (MDA-MB-231 breast) | TGI (HCC-2998 colon) | TGI (SW-620 colon) | TGI (OVCAR-8 ovarian) | TGI (HT29 colon) | TGI (OVCAR-4 ovarian) | TGI (DU-145 prostate) | TGI (NCI/ADR-RES ovarian) | TGI (NCI-H226 lung) | TGI (CCRF-CEM leukemia) | TGI (KM12 colon) | TGI (LOX IMVI melanoma) | TGI (K-562 leukemia) | TGI (SF-268 CNS) | TGI (MOLT-4 leukemia) | TGI (CAKI-1 renal) | TGI (NCI-H23 lung) | TGI (RPMI-8226 leukemia) | TGI (T-47D breast) | TGI (A549 NSCLC) | TGI (UO-31 renal) | TGI (HCT-15 colon) | TGI (NCI-H460 lung) | TGI (UACC-257 melanoma) | TGI (SN12C renal) | TGI (PC-3 prostate) | TGI (HL-60(TB) leukemia) | TGI (OVCAR-5 ovarian) | TGI (M14 melanoma) | TGI (SNB-19 CNS) | TGI (IGROV1 ovarian)
35.7 µM: TGI (U251 CNS)
90.6 µM: TGI (BT-549 breast)
13.4 µM: TGI (RXF 393 renal)
41.3 µM: TGI (786-0 renal)
39.1 µM: TGI (MALME-3M melanoma)
4.09 µM: TGI (SNB-75 CNS)
4.05 µM: TGI (COLO 205 colon)
25.2 µM: TGI (UACC-62 melanoma)
14.5 µM: TGI (HS 578T breast)
43.9 µM: TGI (SK-MEL-28 melanoma)
18.2 µM: TGI (HOP-62 NSCLC)
active: GI50 (MDA-MB-435) 0.406 µM
